The text below walks through data of patent US6872729B2, “Pyrimidinylbenzimidazole and triazinylbenzimidazole derivatives and agricultural/horticultural fungicides” (Kumiai Chemical Industry Co., Ltd., priority 1998, dated 2005).

This experiment deals with Erysiphe graminis. Kind of experiment: Test for preventive effect on wheat powdery mildew. It is filed as in vivo. The settings on record: wheat (Norin-61-go) seedlings, 500 ppm active ingredient, preventive treatment; diseased area of first leaves 10 days after inoculation with Erysiphe graminis. As to the method: Test for Preventive Effect on Wheat Powdery Mildew 9 Wheat seeds (variety: Norin-61-go) were sown in each 9 cm×9 cm polyvinyl chloride pot, grown in a greenhouse for 8 days, then treated with 10 ml per pot of aqueous solutions of wettable powders prepared in accordance with Formulation Example 2, at a concentration of 500 ppm in terms of the active ingredients and dried in the air. Then, the seedlings were inoculated with Erysiphe graminis spores by sprinkle over the plant and placed in a greenhouse of from 20 to 25° C. 10 days after the inoculation, the total diseases area of the first leaves in each pot was observed and evaluated on the basis of the standards shown in Table 67. [table]

The structures appear in SMILES notation.

For `COc1nc(OC)nc(-n2c(C)nc3cc(C(C)=O)ccc32)n1` [Compound I-234], the Biological effectiveness result is on record as “A (No diseased area)”. For `CCc1cc(C)nc(-n2c(C)nc3cc(C)ccc32)n1` [Compound I-1087], the Biological effectiveness entry is on record as “A (No diseased area)”.

As for `CSc1nc(SC)nc(-n2c(C(F)(F)F)nc3cc(Cl)ccc32)n1` [Compound I-1046], the Biological effectiveness entry is recorded as “A (No diseased area)”. Turning to `Cc1nc2cc(Cl)ccc2n1-c1nc(OC(C)C)nc(OC(C)C)n1` [Compound I-592], the Biological effectiveness result is recorded as “A (No diseased area)”. In the case of `COc1ccnc(-n2c(C)nc3cc(Cl)ccc32)n1` [Compound I-671], the Biological effectiveness result was “B (Diseased area of less than 25%)”.

Turning to `Cc1cc(C2CC2)nc(-n2c(C)nc3cc(Cl)ccc32)n1` [Compound I-1104], the Biological effectiveness entry is recorded as “B (Diseased area of less than 25%)”. With `COc1nc(OC)nc(-n2c(C3CC3)nc3cc(Cl)ccc32)n1` [Compound I-360], the Biological effectiveness result was “B (Diseased area of less than 25%)”. For the molecule `CCCc1nc(OC)nc(-n2c(C(F)(F)F)nc3cc(C)ccc32)n1` [Compound I-1004], the Biological effectiveness result is given as “A (No diseased area)”.

For the molecule `CCOc1cc(OCC)nc(-n2c(C)nc3ccc(Cl)cc32)n1` [Compound I-508], the Biological effectiveness entry was “B (Diseased area of less than 25%)”.

For the molecule `COc1nc(OC)nc(-n2c(C)nc3cc(C)c(C)cc32)n1` [Compound I-251], the Biological effectiveness result is “A (No diseased area)”.

With `COc1nc(OC)nc(-n2c(N(C)C)nc3cc(Cl)ccc32)n1` [Compound I-376], the Biological effectiveness result is on record as “B (Diseased area of less than 25%)”.

For `COc1nc(OC)nc(-n2c(C)nc3cc(C(F)(F)F)ccc32)n1` [Compound I-225], the Biological effectiveness entry was “A (No diseased area)”.

With `CCOc1cc(OCC)nc(-n2cnc3cc(C(F)(F)F)ccc32)n1` [Compound I-483], the Biological effectiveness result was “A (No diseased area)”. As to `COc1cc(OC)nc(-n2c(S(C)(=O)=O)nc3cc(C)ccc32)n1` [Compound I-424], the Biological effectiveness entry was “A (No diseased area)”. Regarding `CC#Cc1cc(C)nc(-n2cnc3ccccc32)n1` [Compound I-1123], the Biological effectiveness result is on record as “B (Diseased area of less than 25%)”. Regarding `Cc1cc(C)nc(-n2cnc3ccccc32)n1` [Compound I-1079], the Biological effectiveness entry was “B (Diseased area of less than 25%)”. For the molecule `CCCOc1nc(C)nc(-n2c(C)nc3cc(C)ccc32)n1` [Compound I-831], the Biological effectiveness entry was “B (Diseased area of less than 25%)”. For the molecule `COc1ccc2c(c1)ncn2-c1nc(OC)cc(OC)n1` [Compound I-88], the Biological effectiveness entry is “B (Diseased area of less than 25%)”.

For `CCOc1ccnc(-n2cnc3ccccc32)n1` [Compound I-690], the Biological effectiveness result is reported as “A (No diseased area)”. Turning to `COc1nc(OC)nc(-n2c(C(Cl)(Cl)Cl)nc3cc(C)ccc32)n1` [Compound I-406], the Biological effectiveness result was “A (No diseased area)”. Turning to `CCOc1ccc2c(c1)nc(C(F)(F)F)n2-c1nc(OC)cc(OC)n1` [Compound I-301], the Biological effectiveness result is given as “A (No diseased area)”. On to `COc1ccc2c(c1)nc(C(F)(F)F)n2-c1nc(OC)nc(OC)n1` [Compound I-318], for which the Biological effectiveness result is reported as “A (No diseased area)”.

Consider `CCOc1ccnc(-n2c(C(F)(F)F)nc3cc(C)ccc32)n1` [Compound I-705], for which the Biological effectiveness entry is reported as “A (No diseased area)”. Turning to `CCOc1ccnc(-n2cnc3cc(C)ccc32)n1` [Compound I-693], the Biological effectiveness entry was “A (No diseased area)”. Regarding `CCOc1ccnc(-n2c(C)nc3cc(Cl)ccc32)n1` [Compound I-694], the Biological effectiveness entry was “B (Diseased area of less than 25%)”. Turning to `CCc1cc(CC)nc(-n2cnc3cc(C)ccc32)n1` [Compound I-1094], the Biological effectiveness result is reported as “A (No diseased area)”. In the case of `COc1cc(OC)nc(-n2c(CCl)nc3ccccc32)n1` [Compound I-23], the Biological effectiveness result was “A (No diseased area)”.

Regarding `COc1cc(OC)nc(-n2c(C#N)nc3cc(Cl)ccc32)n1` [Compound I-380], the Biological effectiveness result is on record as “A (No diseased area)”.

On to `COc1nc(OC)nc(-n2c(-c3ccccc3)nc3cc(Cl)ccc32)n1` [Compound I-378], for which the Biological effectiveness entry is reported as “A (No diseased area)”. The result for `CCOc1nc(OCC)nc(-n2c(C)nc3cc(C)ccc32)n1` [Compound I-516] reads “A (No diseased area)”; that for `COc1nc(OC)nc(-n2c(C)nc3cc(C)ccc32)n1` [Compound I-218], “A (No diseased area)”. On to `COc1cc(OC)nc(-n2c(C3CC3)nc3ccccc32)n1` [Compound I-10], for which the Biological effectiveness entry is on record as “B (Diseased area of less than 25%)”. The result for `Cc1nc2cc(Cl)c(Cl)cc2n1-c1nc(Cl)cc(Cl)n1` [Compound I-1064] reads “B (Diseased area of less than 25%)”; that for `COc1cc(OC)nc(-n2c(C#N)nc3ccccc32)n1` [Compound I-38], “B (Diseased area of less than 25%)”; that for `COc1nc(OC)nc(-n2c(Cl)nc3ccccc32)n1` [Compound I-41], “A (No diseased area)”. Turning to `CCOc1cc(C)nc(-n2cnc3ccccc32)n1` [Compound I-768], the Biological effectiveness entry was “A (No diseased area)”.

Take `COc1cc(OC)nc(-n2c(C)nc3cc(C#N)ccc32)n1` [Compound I-199]: the Biological effectiveness entry is recorded as “B (Diseased area of less than 25%)”.

In the case of `COc1cc(OC)nc(-n2c(C)nc3ccc(C(=O)c4ccccc4)cc32)n1` [Compound I-208], the Biological effectiveness result was “B (Diseased area of less than 25%)”. The result for `CCCOc1cc(C)nc(-n2c(C)nc3ccccc32)n1` [Compound I-806] reads “B (Diseased area of less than 25%)”.

Regarding `COc1cc(OC)nc(-n2c(Cl)nc3ccc(C)cc32)n1` [Compound I-272], the Biological effectiveness entry was “A (No diseased area)”. Next, `CCOc1cc(OCC)nc(-n2c(C)nc3ccccc32)n1` [Compound I-461]: “A (No diseased area)”; `COc1nc(OC)nc(-n2c(Cl)nc3cc(C)ccc32)n1` [Compound I-279]: “A (No diseased area)”; `COc1cc(OC)nc(-n2c(C#N)nc3cc(C)ccc32)n1` [Compound I-381]: “A (No diseased area)”.

As to `COc1cc(OC)nc(-n2c(C)nc3c(C)cccc32)n1` [Compound I-181], the Biological effectiveness entry was “B (Diseased area of less than 25%)”.

`CCOc1cc(C)nc(-n2c(C)nc3cc(C)ccc32)n1` [Compound I-775]: the Biological effectiveness result is recorded as “A (No diseased area)”. The result for `COc1cc(OC)nc(-n2c(Cl)nc3cc(OC(F)(F)F)ccc32)n1` [Compound I-263] reads “A (No diseased area)”. The result for `CCOc1nc(OCC)nc(-n2c(C(F)(F)F)nc3cc(Cl)ccc32)n1` [Compound I-545] reads “A (No diseased area)”. `CCc1nc2cc(F)ccc2n1-c1nc(OC)cc(OC)n1` [Compound I-332]: the Biological effectiveness entry is reported as “B (Diseased area of less than 25%)”. Take `COc1nc(OC)nc(-n2c(C(F)(F)F)nc3cc(F)ccc32)n1` [Compound I-309]: the Biological effectiveness result is “A (No diseased area)”.

For the molecule `CCOc1cc(C)nc(-n2c(Cl)nc3ccccc32)n1` [Compound I-771], the Biological effectiveness result is reported as “A (No diseased area)”. In the case of `CCOc1cc(OCC)nc(-n2c(S(C)(=O)=O)nc3cc(Cl)ccc32)n1` [Compound I-573], the Biological effectiveness result is “B (Diseased area of less than 25%)”. For the molecule `CCCc1cc(OC)nc(-n2c(C)nc3cc(Cl)ccc32)n1` [Compound I-964], the Biological effectiveness entry is “B (Diseased area of less than 25%)”.

Turning to `COc1cc(OC)nc(-n2cnc3cc(OC(F)(F)F)ccc32)n1` [Compound I-91], the Biological effectiveness entry is recorded as “B (Diseased area of less than 25%)”. For the molecule `COc1nc(OC)nc(-n2c(C)nc3cc(C(C)C)ccc32)n1` [Compound I-221], the Biological effectiveness entry is “B (Diseased area of less than 25%)”. The result for `CCOc1nc(OCC)nc(-n2c(C)nc3cc(Br)ccc32)n1` [Compound I-515] reads “A (No diseased area)”; that for `COc1cc(C)nc(-n2cnc3ccccc32)n1` [Compound I-726], “B (Diseased area of less than 25%)”; that for `CCOc1cc(OCC)nc(-n2c(C)nc3cc(Cl)ccc32)n1` [Compound I-499], “A (No diseased area)”. Take `COc1cc(OC)nc(-n2c(S(C)(=O)=O)nc3cc(Cl)ccc32)n1` [Compound I-423]: the Biological effectiveness entry is reported as “A (No diseased area)”. Next, `COc1cc(OC)nc(-n2c(Cl)nc3ccccc32)n1` [Compound I-2]: “A (No diseased area)”; `COc1nc(OC)nc(-n2cnc3cc(I)ccc32)n1` [Compound I-132]: “A (No diseased area)”. With `Cc1nc2cc(Cl)ccc2n1-c1nc(N(C)C)nc(N(C)C)n1` [Compound I-1071], the Biological effectiveness entry is recorded as “A (No diseased area)”.

`COc1ccc2c(c1)ncn2-c1nc(OC)nc(OC)n1` [Compound I-141]: the Biological effectiveness entry is “A (No diseased area)”. Regarding `COc1ccnc(-n2c(C)nc3ccc(Cl)cc32)n1` [Compound I-675], the Biological effectiveness result was “B (Diseased area of less than 25%)”.

For the molecule `CCCCOc1cc(C)nc(-n2cnc3ccccc32)n1` [Compound I-872], the Biological effectiveness result is “B (Diseased area of less than 25%)”. For the molecule `COc1nc(OC)nc(-n2c(C(F)(F)F)nc3cc(Br)ccc32)n1` [Compound I-311], the Biological effectiveness result is “A (No diseased area)”.
